# Activity calls are given as the source filed them. No cut-off for these calls is given here.
# Key:
# SH-SY5Y [1] = experiment: Neuroprotective activity in human SH-SY5Y cells assessed as reduction in glutamate-induced cytotoxicity at 10 uM relative to untreated control; assay type: functional, cell-based
# SH-SY5Y [2] = experiment: Neuroprotective activity in human SH-SY5Y cells assessed as reduction in oxygen-glucose deprivation-induced cytotoxicity at 10 uM relative to untreated control; assay type: functional, cell-based
# SH-SY5Y [3] = experiment: Neuroprotective activity in human SH-SY5Y cells assessed as reduction in hydrogen peroxide-induced cytotoxicity by measuring cell viability level at 10 uM (reference value: 50.7+/- 2.6%); assay type: functional
# SH-SY5Y [4] = experiment: Cytotoxicity against human SH-SY5Y cells assessed as reduction in cell viability level at 10 uM relative to untreated control; assay type: cell-based
SMILES,Activity (SH-SY5Y [1]),Activity (SH-SY5Y [2]),Activity (SH-SY5Y [3]),Activity (SH-SY5Y [4])
O=C(/C=C/c1ccc(O)c(O)c1)O[C@@H]1C[C@@](O)(C(=O)O)C[C@@H](O)[C@@H]1OC(=O)[C@@H]1[C@@H](c2ccc(O)c(O)c2)[C@@]2(CO)C=CC(=O)[C@@H]1O2,inactive,inactive,75.6%,
CC(=O)OC[C@H]1O[C@@H](Oc2cc(O)c3c(=O)cc(-c4ccc(O)c(O)c4)oc3c2)[C@H](O)[C@@H](O)[C@@H]1O,inactive,inactive,,
O=C(/C=C/c1ccc(O)c(O)c1)O[C@@H]1[C@H](O)C[C@@](O)(C(=O)O)C[C@H]1OC(=O)/C=C/c1ccc(O)c(O)c1,inactive,inactive,75.2%,
O=c1cc(-c2ccc(O[C@@H]3O[C@H](CO)[C@@H](O)[C@H](O)[C@H]3O)c(O)c2)oc2cc(O[C@@H]3O[C@H](CO)[C@@H](O)[C@H](O)[C@H]3O)cc(O)c12,inactive,inactive,,
O=C(/C=C/c1ccc(O)c(O)c1)O[C@@H]1C[C@](O)(C(=O)O)C[C@@H](O)[C@H]1O,inactive,inactive,inactive,
O=c1cc(-c2ccc(O)cc2)oc2cc(O[C@@H]3O[C@H](CO)[C@@H](O)[C@H](O)[C@H]3O)cc(O)c12,inactive,inactive,,
O=C(O)[C@H]1O[C@@H](Oc2cc(O)c3c(=O)cc(-c4ccc(O)c(O)c4)oc3c2)[C@H](O)[C@@H](O)[C@@H]1O,inactive,inactive,80.9%,
CCCC[C@@H]1OC(=O)c2ccccc21 [(3S)-BUTYLPHTHALIDE],,,73.9%,
O=c1cc(-c2ccc(O)c(O)c2)oc2cc(O[C@@H]3O[C@H](CO)[C@@H](O)[C@H](O)[C@H]3O)cc(O)c12 [GALUTEOLIN],inactive,inactive,87.6%,
COc1ccc(-c2cc(=O)c3c(O)cc(O[C@@H]4O[C@H](CO)[C@@H](O)[C@H](O)[C@H]4O)cc3o2)cc1O,inactive,inactive,,
O=C(/C=C/c1ccc(O)c(O)c1)O[C@@H]1[C@H](O)C[C@@](O)(C(=O)O)C[C@H]1OC(=O)[C@@H]1[C@@H](c2ccc(O)c(O)c2)[C@@]2(CO)C=CC(=O)[C@@H]1O2,inactive,inactive,78.4%,
O=C(/C=C/c1ccc(O)c(O)c1)O[C@@H]1C[C@@](OC(=O)/C=C/c2ccc(O)c(O)c2)(C(=O)O)C[C@@H](O)[C@@H]1O [CYNARIN],inactive,inactive,77.2%,
O=C(/C=C/c1ccc(O)c(O)c1)O[C@@H]1[C@H](O)C[C@@](O)(C(=O)O)C[C@H]1OC(=O)[C@@H]1[C@@H]2O[C@@](CO)(C=CC2=O)[C@H]1c1ccc(O)c(O)c1,inactive,inactive,76.7%,
CC(=O)O[C@@H]1[C@H](O)C[C@@](O)(C(=O)O)C[C@H]1OC(=O)/C=C/c1ccc(O)c(O)c1,inactive,inactive,,Toxic

# Reference: ChEMBL document CHEMBL4043071, “Neuroprotective Caffeoylquinic Acid Derivatives from the Flowers of Chrysanthemum morifolium” (J Nat Prod, 2017)
